Counter-ions that a name gives are not always drawn.
Legend:
[1] = Physicochemical stability of Compound 1 Form A (equilibration, evaporation, anti-solvent, DSC heating-cooling cycle experiments); conditions: equilibration at 25° C. (18 solvent systems) and 50° C. (19), slow and fast evaporation
Bulk stability = assay type: physicochemical; conditions: 1 week
Experimental: Bulk stability of Compound 1 mesylate Form C, phosphate Form A, maleate Form A, fumarate Form B was investigated under 25° C./60% RH in an open container and under 40° C./75% RH in an open container over 1 week. Bulk stability of Compound 1 hydrochloride Form C and Form D, were evaluated under 25° C./60% RH in an open container, under 40° C./75% RH in an open container, and at 60° C. in a tight container over 1 week.

[2] = Solubility in aqueous pH buffers and bio-relevant solutions; assay type: physicochemical; conditions: for solubility: in some solvent systems (summary statement)
Experimental: Solubility of the Compound 1 mesylate Form C, phosphate Form A, maleate Form A, and fumarate Form B was measured in 6 aqueous pH buffers and bio-relevant solutions including pH 1.2 HCl solution (0.1 N), pH 4.5 acetate buffer (50 mM), water, pH 2.0 SGF, pH 6.5 FaSSIF-v1, and pH 5.0 FeSSIF-v1 at 37° C. for 1 h and 2 h. Residual solids after the solubility test were analyzed by XRPD.

[3] = Hygroscopicity by dynamic vapor sorption (DVS) test; assay type: physicochemical; conditions: for Form and crystallinity after the DVS test: after DVS at 25° C.; for hygroscopicity: DVS at 25° C.; for water absorbed: from 40% RH to 95% RH at 25° C.
Experimental: It absorbed about 1.1% water from 40% RH to 95% RH at 25° C. […] It absorbed about 2.3% water from 40% RH to 95% RH at 25° C. […] It absorbed about 0.4% water from 40% RH to 95% RH at 25° C. […] It absorbed about 0.29% water from 40% RH to 95% RH at 25° C. […] It absorbed about 0.14% water from 40% RH to 95% RH at 25° C. After the DVS test.

[4] = Feasibility of Formulation process (compression, dry grinding, granulation simulation); assay type: physicochemical; conditions: for tolerance to compression, dry grinding, granulation simulation: compression at 2, 5, 10 and 20 MPa, Form change and crystallinity
Experimental: Feasibility of Formulation process for Compound 1 mesylate Form C, phosphate Form A, maleate Form A, fumarate Form B hydrochloride Form C, and hydrochloride Form D were evaluated by compression (at 2 MPa, 5 MPa, 10 MPa, and 20 MPa), dry grinding, and granulation simulation experiments.

PK exposure = assay type: in vivo; conditions: summary statement, method not given

Row | SMILES | physicochemical stability (crystalline Form after the experiments) [1] | bulk stability (Bulk stability; 25° C./60% RH, open container) | bulk stability (Bulk stability; 40° C./75% RH, open container) | residual solids after the solubility test (XRPD) ([2]; SGF) | solubility [2] | Form and crystallinity after the DVS test [3] | DVS behaviour ([3]; from 0% RH to 40% RH, 25° C.) | Form after dry grinding and compression ([4]; dry grinding and compression) | PK exposure (PK exposure) | bulk stability (Bulk stability; 60° C., tight container) | hygroscopicity [3] | water absorbed [3] | XRPD peaks after compression ([4]; compression at 5 MPa, 10 MPa, and 20 MPa) | XRPD peaks after compression ([4]; compression under 5 MPa and 10 MPa) | solubility at 1 h ([2]; pH 2, simulated gastric fluid, thermodynamic from solid, SGF, 37° C., at 1 h) [µg/mL] | DVS behaviour of the potential hydrate ([3]; RH<70%, 25° C.) | DVS behaviour ([3]; relative humidity above 40%, 25° C.) | tolerance to compression ([4]; compression) | tolerance to compression, dry grinding, granulation simulation [4]
1 | CC(=O)Nc1cc(Nc2cc(C3CCOCC3)cc(S(C)(=O)=O)n2)c(-c2ccc3c(n2)OCC(C)(C)O3)cn1 [Compound 1 Form A, N-(5-(2,2-dimethyl-2,3-dihydro-[1,4]dioxino[2,3-b]pyridin-6-yl)-4-((6-(methylsulfonyl)-4-(tetrahydro-2H-pyran-4-yl)pyridin-2-yl)amino)pyridin-2-yl)acetamide] | still kept the same Form |  |  |  |  |  |  |  |  |  |  |  |  |  |  |  |  |  | 
2 | CC(=O)Nc1cc(Nc2cc(C3CCOCC3)cc(S(C)(=O)=O)n2)c(-c2ccc3c(n2)OCC(C)(C)O3)cn1 [Compound 1 fumarate Form B, N-(5-(2,2-dimethyl-2,3-dihydro-[1,4]dioxino[2,3-b]pyridin-6-yl)-4-((6-(methylsulfonyl)-4-(tetrahydro-2H-pyran-4-yl)pyridin-2-yl)amino)pyridin-2-yl)acetamide] |  | physically and chemically stable | physically and chemically stable | remained unchanged | relatively high solubility | still Compound 1 fumarate Form B | stable | showed Form change | good PK exposure |  |  |  |  |  |  | underwent dehydration when RH<70% and returns back to the anhydrate | started to absorb water when relative humidity was above 40% and converted to a potential hydrate |  | 
3 | CC(=O)Nc1cc(Nc2cc(C3CCOCC3)cc(S(C)(=O)=O)n2)c(-c2ccc3c(n2)OCC(C)(C)O3)cn1 [Compound 1 hydrochloride Form C, N-(5-(2,2-dimethyl-2,3-dihydro-[1,4]dioxino[2,3-b]pyridin-6-yl)-4-((6-(methylsulfonyl)-4-(tetrahydro-2H-pyran-4-yl)pyridin-2-yl)amino)pyridin-2-yl)acetamide] |  | physically and chemically stable | physically and chemically stable |  |  | No Form changed |  |  |  | physically and chemically stable | slightly hygroscopic | about 0.29% | became slightly broad |  |  |  |  | good tolerance to compression with no Form change and no obvious crystallinity decrease | good tolerance
4 | CC(=O)Nc1cc(Nc2cc(C3CCOCC3)cc(S(C)(=O)=O)n2)c(-c2ccc3c(n2)OCC(C)(C)O3)cn1 [Compound 1 hydrochloride Form D, N-(5-(2,2-dimethyl-2,3-dihydro-[1,4]dioxino[2,3-b]pyridin-6-yl)-4-((6-(methylsulfonyl)-4-(tetrahydro-2H-pyran-4-yl)pyridin-2-yl)amino)pyridin-2-yl)acetamide] |  | physically and chemically stable | physically and chemically stable |  |  | No Form changed |  |  |  | physically and chemically stable | non-hygroscopic | about 0.14% |  | became slightly broad |  |  |  |  | good tolerance

The next lines start with results.

Row | physicochemical stability (crystalline Form after the experiments) [1] | bulk stability (Bulk stability; 25° C./60% RH, open container) | bulk stability (Bulk stability; 40° C./75% RH, open container) | residual solids after the solubility test (XRPD) ([2]; SGF) | solubility [2] | Form and crystallinity after the DVS test [3] | DVS behaviour ([3]; from 0% RH to 40% RH, 25° C.) | Form after dry grinding and compression ([4]; dry grinding and compression) | PK exposure (PK exposure) | bulk stability (Bulk stability; 60° C., tight container) | hygroscopicity [3] | water absorbed [3] | XRPD peaks after compression ([4]; compression at 5 MPa, 10 MPa, and 20 MPa) | XRPD peaks after compression ([4]; compression under 5 MPa and 10 MPa) | solubility at 1 h ([2]; pH 2, simulated gastric fluid, thermodynamic from solid, SGF, 37° C., at 1 h) [µg/mL] | SMILES | DVS behaviour of the potential hydrate ([3]; RH<70%, 25° C.) | DVS behaviour ([3]; relative humidity above 40%, 25° C.) | tolerance to compression ([4]; compression) | tolerance to compression, dry grinding, granulation simulation [4]
5 |  | physically and chemically stable | physically and chemically stable |  | relatively high solubility | No Form and crystallinity changed |  |  | good PK exposure |  | slightly hygroscopic | about 0.4% |  |  |  | CC(=O)Nc1cc(Nc2cc(C3CCOCC3)cc(S(C)(=O)=O)n2)c(-c2ccc3c(n2)OCC(C)(C)O3)cn1 [Compound 1 maleate Form A, N-(5-(2,2-dimethyl-2,3-dihydro-[1,4]dioxino[2,3-b]pyridin-6-yl)-4-((6-(methylsulfonyl)-4-(tetrahydro-2H-pyran-4-yl)pyridin-2-yl)amino)pyridin-2-yl)acetamide] |  |  |  | good tolerance
6 |  | physically and chemically stable | physically and chemically stable |  | relatively high solubility | No Form and crystallinity changed |  |  | good PK exposure |  | slightly hygroscopic | about 1.1% |  |  |  | CC(=O)Nc1cc(Nc2cc(C3CCOCC3)cc(S(C)(=O)=O)n2)c(-c2ccc3c(n2)OCC(C)(C)O3)cn1 [Compound 1 mesylate Form C, N-(5-(2,2-dimethyl-2,3-dihydro-[1,4]dioxino[2,3-b]pyridin-6-yl)-4-((6-(methylsulfonyl)-4-(tetrahydro-2H-pyran-4-yl)pyridin-2-yl)amino)pyridin-2-yl)acetamide] |  |  |  | good tolerance
7 |  | physically and chemically stable | physically and chemically stable |  | relatively high solubility | No Form and crystallinity change |  |  | good PK exposure |  | slightly hygroscopic | about 2.3% |  |  | ~740 | CC(=O)Nc1cc(Nc2cc(C3CCOCC3)cc(S(C)(=O)=O)n2)c(-c2ccc3c(n2)OCC(C)(C)O3)cn1 [Compound 1 phosphate Form A, N-(5-(2,2-dimethyl-2,3-dihydro-[1,4]dioxino[2,3-b]pyridin-6-yl)-4-((6-(methylsulfonyl)-4-(tetrahydro-2H-pyran-4-yl)pyridin-2-yl)amino)pyridin-2-yl)acetamide] |  |  |  | good tolerance
